{"source": "patent US11945765B1", "about": "“4,4′-naphthalene-1,5-diylbis(diazene-2,1-diyl)bis(2-methylphenol) as an antioxidant compound” (KING FAISAL UNIVERSITY, priority 2023, dated 2024)", "assay": "DPPH radical scavenging antioxidant test", "settings": "517 nm; for Inhibition (radical scavenging inhibition): DPPH (0.75 mM), compound 3 μM in ethanol, 30 minutes in the dark", "method": "The antioxidant properties of the 4,4′-naphthalene-1,5-diylbis(diazene-2,1-diyl)bis(2-methylphenol) compound were studied by adding 0.2 mL DPPH (0.75 mM)) to 4,4′-naphthalene-1,5-diylbis(diazene-2,1-diyl)bis(2-methylphenol) (III) (3 μM) in ethanol. After 30 minutes of incubation in the dark, the absorbance was read against a blank at 517 nm. Ascorbic acid (vitamin C) was used as standard antioxidants (positive control). A blank sample was prepared by 0.2 ml of DPPH in 3 mL ethanol. A negative control sample was run using ethanol instead of the sample. The radical scavenging inhibition was calculated using the following equation: […]", "data": [{"smiles": "Cc1cc(/N=N\\c2cccc3c(/N=N/c4ccc(O)c(C)c4)cccc23)ccc1O", "note": "[Product III, 4,4′-naphthalene-1,5-diylbis(diazene-2,1-diyl)bis(2-methylphenol)]", "values": [{"measurement": "Inhibition (radical scavenging inhibition)", "value": 52, "unit": "%"}, {"measurement": "antioxidant potential compared to vitamin C (in words)", "setting": "DPPH in vitro test, vitamin C as positive control", "value": "high potential as an antioxidant"}]}, {"smiles": "O=C1O[C@H]([C@@H](O)CO)C(O)=C1O", "note": "[vit c, Ascorbic acid, reference compound]", "values": [{"measurement": "Inhibition (radical scavenging inhibition)", "value": 74, "unit": "%"}]}]}
